Our source for the Papp values is PubChem BioAssay AID1645871.

For this data set the following is noted: pampa; pH 5.0; 30.0 min; 50.0 µM.
By Papp is commonly meant the rate of passage across a membrane or cell layer, normalised by area and donor concentration. Consider `COc1ccc(-n2c(C)c(C(C)=O)c3cc(OC(=O)COc4ccccc4)ccc32)cc1`, for which the Papp is more than 1000 ×10⁻⁶ cm/s.

`COc1cccc(CNC(=O)CCCn2nc(C)c3c(C)n(-c4ccc(C)cc4)nc3c2=O)c1OC` yielded a Papp of 446 ×10⁻⁶ cm/s. Next, `O=C(O)C1CCN(c2ncc(-c3ccc4c(c3)OCCCO4)s2)CC1`: more than 1000 ×10⁻⁶ cm/s; `COc1ccc(-n2nc(C3CCN(C(=O)c4ccccc4)CC3)[nH]c2=O)cc1`: 250 ×10⁻⁶ cm/s; `COc1ccc(C)cc1Nc1c2c(nc3ccccc13)CCC2`: 293 ×10⁻⁶ cm/s. Regarding `CN(C)c1cccc(-c2cnc(Nc3cccnc3)c3c2CCO3)c1`, the Papp was more than 1000 ×10⁻⁶ cm/s.

On to `CC(=O)Nc1ccc(NC(=O)C(NS(=O)(=O)c2ccc(Br)s2)c2ccccc2)cc1` (stereo unspecified), for which the Papp came out at 16.2 ×10⁻⁶ cm/s. `CCCN1C(CC(C)C)=NS(=O)(=O)c2cc(NC(=O)c3ccco3)ccc21` showed a Papp of 239 ×10⁻⁶ cm/s. Then `COc1ccc2[nH]c3c(c2c1)CCNC31CCN(S(=O)(=O)c2c(C)noc2C)CC1`, with 161 ×10⁻⁶ cm/s. Next, `COc1ccc(-c2ccc3ncc4c(c3c2)n(-c2ccc(N3CCNCC3)c(C(F)(F)F)c2)c(=O)n4C)cn1`: 153 ×10⁻⁶ cm/s; `Cc1ccc(NC(=O)c2c(N3CCCC3=O)c3cc(C)ccc3n2C)c(C)c1`: more than 1000 ×10⁻⁶ cm/s.

Turning to `Cc1ccc(S(=O)(=O)Nc2ccccc2C(=O)Nc2nc(-c3ccccc3)cs2)cc1`, the Papp was more than 1000 ×10⁻⁶ cm/s. The molecule `Oc1ccc(-c2nc(C3CC3)nc3c2CCN(CC2CCCCC2)CC3)cc1` gave a Papp of 190 ×10⁻⁶ cm/s.

`CCc1nnc(NC(=O)c2nc(S(=O)(=O)Cc3ccc(C)cc3)ncc2Cl)s1`: the Papp worked out at 711 ×10⁻⁶ cm/s. In turn, `COc1cccc(-n2nc(C(=O)O)cc2-c2ccc(C3CCCCC3)c(Cl)c2)c1` returned a Papp of 401 ×10⁻⁶ cm/s. `COc1ccc(-c2cc(-c3cccc(NC(C)=O)c3)cn3cncc23)cn1` displayed a Papp of 45.4 ×10⁻⁶ cm/s.

`CC(C)(N)C(=O)N[C@H](COCc1ccccc1)C(=O)N1CCC2(CC1)CN(S(C)(=O)=O)c1ccccc12` returned a Papp of 27.5 ×10⁻⁶ cm/s.

Molecule `Cc1cccc(-n2ncc3c2CCCC3NC(=O)c2c(F)ccc(F)c2F)c1C` (stereo unspecified) showed an apparent permeability coefficient (Papp) of 552 ×10⁻⁶ cm/s. On to `Cc1ccc(-c2c(CN3CCN(c4cccc(C(F)(F)F)c4)CC3)csc2C)cc1`, for which the Papp is 35 ×10⁻⁶ cm/s. In turn, `CN(Cc1ccc(/C=C/C(=O)NO)cc1)CC12CC3CC(CC(C3)C1)C2` came in with an apparent permeability (Papp) of 108 ×10⁻⁶ cm/s.

Turning to `COC(=O)c1cc2occc2n1Cc1nc(-c2ccc(C)cc2)oc1C`, the Papp amounted to 257 ×10⁻⁶ cm/s. As for `O=C(Cc1cccs1)NCc1nnc2ccc(-c3ccccc3)nn12`, the Papp came to 55.9 ×10⁻⁶ cm/s. As to `CCc1ccc2ncc(C(=O)c3ccc(C)c(C)c3)c(N3CCC(C(N)=O)CC3)c2c1`, the apparent permeability (Papp) stood at 653 ×10⁻⁶ cm/s. `COc1cccc(Nc2ncc(-c3cccc(N(C)C)c3)c3c2OCC3)c1` showed a Papp of more than 1000 ×10⁻⁶ cm/s.

In turn, `CCOC(=O)c1ccc(NC(=O)c2sc3nc4c(cc3c2N)N2CCC4CC2)cc1` returned a Papp of 720 ×10⁻⁶ cm/s. Take `Cc1nc(-c2ccco2)cc([C@H]2CN3CC[C@H]2C[C@@H]3CNC(=O)NC2CCCCC2)n1`: the Papp was found to be 4.96 ×10⁻⁶ cm/s. Take `CCC1=Nc2cc(C(=O)NCCCOC)ccc2Sc2ccc(Br)cc21`: the apparent permeability coefficient (Papp) is more than 1000 ×10⁻⁶ cm/s. Consider `CN1CCN(c2ccc(Nc3nn4c(=O)c5ccccc5nc4s3)cc2)CC1`, for which the Papp came out at 5.91 ×10⁻⁶ cm/s.

In turn, `COc1ccc(-c2nc3ccc(C4=NNC(=O)CC4C)cc3[nH]2)cc1` (stereo unspecified) gave an apparent permeability coefficient (Papp) of 232 ×10⁻⁶ cm/s. Then `O=C(NCc1ccccc1)c1nc(S(=O)(=O)Cc2ccc(F)cc2)ncc1Cl`, with 296 ×10⁻⁶ cm/s; and `O=C(NCc1ccc(S(=O)(=O)c2cccc(C(F)(F)F)c2)cc1)c1cnc2[nH]ncc2c1`, with 362 ×10⁻⁶ cm/s; and `Cc1ccc(-c2ccc(CNc3nc(-c4ccccc4C(C)C)nc4ccccc34)cc2)cn1`, with 857 ×10⁻⁶ cm/s. `CCOC(=O)NNc1ccc(N(CC)CC(C)O)nn1` (stereo unspecified) showed a Papp of 8.57 ×10⁻⁶ cm/s. As for `Nc1c(S(=O)(=O)c2cccs2)c2nc3ccccc3nc2n1Cc1ccccc1`, the Papp was more than 1000 ×10⁻⁶ cm/s.

Turning to `CCC(CC)c1cc([C@H]2CN3CC[C@H]2C[C@@H]3CNC(=O)COc2ccccc2)nc(-c2ccncc2)n1`, the apparent permeability (Papp) turned out to be 374 ×10⁻⁶ cm/s. `c1cn2cc(-c3ccc4cn[nH]c4c3)nc(Nc3ccc(N4CCOCC4)cc3)c2n1` returned an apparent permeability coefficient (Papp) of more than 1000 ×10⁻⁶ cm/s. Then `O=C(C1CC(=O)N(c2n[nH]c3ccccc23)C1)N1CCC(c2noc3cc(F)ccc23)CC1` (stereo unspecified), with 635 ×10⁻⁶ cm/s; and `CCOc1cc(=O)n2c(c1C(=O)Nc1cc(OC)c(Cl)cc1OC)CCCC2`, with 68.7 ×10⁻⁶ cm/s. As for `COc1ccccc1-c1[nH]nc2ncc(-c3ccc(C)cc3)nc12`, the Papp is 1.92 ×10⁻⁶ cm/s. As for `Cc1cc(CNC(=O)c2ccc3c(c2)n(CC2CC2)c(=O)n3C2CCCCC2)on1`, the Papp amounted to 870 ×10⁻⁶ cm/s.

The molecule `COc1cc([C@@H](CC(=O)O)c2ccc(C)c(CN3C[C@@H](C)Oc4ccccc4S3(=O)=O)c2)cc2nnn(C)c12` displayed a Papp of 898 ×10⁻⁶ cm/s. Then `CCC(CC)c1cc([C@H]2CN3CC[C@H]2C[C@@H]3CNC(=O)Cc2cccs2)nc(-c2ccncc2)n1`, with 320 ×10⁻⁶ cm/s; and `Fc1ccccc1CNCc1ccc(-c2ccnc3[nH]ccc23)cc1`, with 266 ×10⁻⁶ cm/s. Next, `N#Cc1ccc(C(=O)Nc2ccc(Cl)c(-c3nc4cc(Cl)ccc4o3)c2)c(F)c1`: 679 ×10⁻⁶ cm/s.

For the molecule `CNc1sc(-c2cccc3ccccc23)nc1C#N`, the Papp was 268 ×10⁻⁶ cm/s. The molecule `CCc1cccc(NC(=O)CSc2nc3ccccc3nc2N2CCCCC2)c1` registered a Papp of 351 ×10⁻⁶ cm/s.
